In patent publication US20250235437A1, “PROTEOLYSIS TARGETING CHIMERA (PROTAC) MOLECULE FOR DEGRADATION OF ENL AND CANCER THERAPY” (Baylor College of Medicine, priority 2022, published 2025):

Assays:
ENL [1] = target: T1, ENL (Homo sapiens, UniProt Q03111); experiment: ENL degradation in Molm-13 cells (Western blot); type: cell-based; details: Molm-13 cells (MLL1-AF9), 24 h
T1 construct: tested whether the compounds degrade ENL and AF9 in MV4;11 leukemia cells; endogenous in cells; host or cells: MV4;11; Molm-13
T1 sequence (Q03111 1-559): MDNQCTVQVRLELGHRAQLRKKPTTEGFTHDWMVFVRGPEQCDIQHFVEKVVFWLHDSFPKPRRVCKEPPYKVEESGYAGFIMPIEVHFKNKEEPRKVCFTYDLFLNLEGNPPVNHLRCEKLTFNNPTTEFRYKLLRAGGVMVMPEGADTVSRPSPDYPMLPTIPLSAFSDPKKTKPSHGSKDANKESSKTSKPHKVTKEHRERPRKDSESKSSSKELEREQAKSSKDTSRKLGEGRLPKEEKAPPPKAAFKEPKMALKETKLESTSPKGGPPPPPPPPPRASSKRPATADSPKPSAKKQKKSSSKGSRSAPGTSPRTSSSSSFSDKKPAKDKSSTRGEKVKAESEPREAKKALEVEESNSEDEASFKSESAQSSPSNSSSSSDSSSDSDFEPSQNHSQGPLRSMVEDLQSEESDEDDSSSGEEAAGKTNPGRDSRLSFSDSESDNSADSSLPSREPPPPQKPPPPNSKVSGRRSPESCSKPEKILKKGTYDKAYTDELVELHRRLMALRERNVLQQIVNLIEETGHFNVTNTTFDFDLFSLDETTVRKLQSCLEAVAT
Protocol: (§1) Next, Applicant tested whether the compounds degrade ENL and AF9 in MV4;11 leukemia cells with the .MLL1-AF4 oncogene. Upon compound treatment for 24 h, the cells were washed, lysed, and the lysates subjected to SDS-PAGE (sodium dodecyl sulphate-polyacrylamide gel electrophoresis) followed by detection with Western blot.
In addition, compound 1 efficiently degraded ENL in another MLL1-r leukemia Molm-13 cells (with MLL1-AF9) with DC50 of 47 nM and Dmax of ˜88% (FIG. 3E). Moreover, significant ENL degradation can be detected in 2 h and depletion occurred within 24 h (FIG. 3F).

ENL [2] = target: T1, ENL; experiment: ENL degradation in MV4;11 cells (Western blot); type: cell-based; details: 500 nM
RPMI-8226 cells [3] = experiment: Gene profiling and GSEA in RPMI-8226 cells; type: cell-based; details: 500 nM for 4 days
Myc = Myc expression in RPMI-8226 cells; type: cell-based; details: 4 days
ENL [4] = target: T1, ENL; experiment: Nuclear and cytoplasmic ENL levels in MV4;11 cells, 4 days (Western blot); type: cell-based
Text: Upon treatment of MV4;11 cells with these compounds for 4 days, cytoplasmic and nuclear proteins were separated and subjected to SDS-PAGE/Western blot.

RPMI-8226 cells [5] = experiment: Anti-proliferative activity, RPMI-8226 cells; type: cell-based
Molm-13 cells [6] = experiment: Differentiation of Molm-13 cells (CD14, CD11b); type: cell-based; details: 3 μM for 5 days
HoxA9, Meis1 and Myc = experiment: Expression of HoxA9, Meis1 and Myc in Molm-13 cells; type: cell-based; details: 4 days
Protocol: Previous studies show ENL is required for expression of MLL1-target genes in MLL1-r leukemia. How compound 1-mediated ENL degradation changes expression of HoxA9, Meis1 and Myc, three characteristic genes in MLL1-r leukemia, was examined. Molm-13 cells were treated with compound 1 for 4 days, after which the RNAs were extracted and analyzed.

HoxA11 and HoxA13 = experiment: mENL-driven HoxA11 and HoxA13 expression in HEK293T cells; type: cell-based; set-up: dose or concentration left out as unconfirmed; details: 24 h incubation
Text: Next, Applicant investigated how mENL degradation affect expression of HoxA11 and HoxA13 in this cell model.

Molm-13 cells [7] = details: Molm13 cells, footnote b: reported in Li, et al. J Hematol Oncol, 2022; read-out: Anti-proliferative activity EC50, Molm13; cited from earlier work
Molm-13 cells [8] = experiment: Apoptosis of Molm-13 cells; type: cell-based
Protocol: Treatment of Molm-13 cells with compound 1 for 7 days at 1 and 3 μM caused significant apoptosis of 22.7% and 67.6%, respectively (FIG. 6C).

ENL [9] = target: T1, ENL; experiment: ENL degradation in MV4;11 cells (Western blot); type: cell-based
Protocol: as §1

[10] = test system: AF9, AFF4, cyclin-T1, DOT1L; experiment: Levels of other SEC-related proteins in MV4;11 cells, 4 days (Western blot); type: cell-based; details: nucleus
Text: Applicant further investigated how compound 1 affects ENL, AF9 and other proteins of SEC in the cytoplasmic and nuclear compartments, the latter of which are more relevant to the functions of these transcription cofactors. […] Upon treatment of MV4;11 cells with these compounds for 4 days, cytoplasmic and nuclear proteins were separated and subjected to SDS-PAGE/Western blot.

Hela cell = details: Hela cells, footnote b: reported in Li, et al. J Hematol Oncol, 2022; read-out: Anti-proliferative activity EC50, Hela; cited from earlier work

With `C[C@H]1CCCN1Cc1nc2cc(NC(=O)c3ccc4c(cnn4CCCCCCCCNc4cccc5c4C(=O)N(C4CCC(=O)NC4=O)C5=O)c3)ccc2[nH]1` (some centres unmarked) [Compound 1] the DC50 (ENL [1]) was 47 nM, the “Dmax, ENL” value (ENL [1]) was about 88% and the “time at which significant ENL degradation can be detected” value (ENL [2]) was 2 h. The “time to ENL depletion” value (ENL [2]) was at most 24 h, the “expression of MYC target gene set (GSEA)” value (RPMI-8226 cells [3]) was “significantly down-regulated” and the “expression of MYC” value (Myc) was “dose-dependently decreased expression of MYC”. The “ENL level in the cytoplasmic extract” value (ENL [4]) was “significantly reduced”, the “ENL level in the nucleus” value (ENL [4]) was “significantly reduced dose-dependently and almost depleted with 500 nM” and the EC50 (RPMI-8226 cells [5]) was 1200 ± 230 nM. For the same compound, the “cell differentiation (CD14, CD11b)” value (Molm-13 cells [6]) was “induced cell differentiation”, the “expression of HoxA9, Meis1 and Myc” value (HoxA9, Meis1 and Myc) was “significantly inhibit expression of these three genes in a generally dose-dependent manner” and the “overexpression of HoxA11 and HoxA13” value (HoxA11 and HoxA13) was “significantly inhibited overexpression of HoxA11 and HoxA13”. The EC50 (Molm-13 cells [7]) was 320 nM, the apoptosis (Molm-13 cells [8]; 0.5 μM or shorter incubation (e.g. 4 days)) was under 5% and the apoptosis (Molm-13 cells [8]; 7 days, 1 μM) was 22.7%. The apoptosis (Molm-13 cells [8]; 7 days, 3 μM) was 67.6%, the “Dmax (maximal degradation), ENL” value (ENL [9]; 24 h treatment) was about 95% and the “concentration at which ENL is almost depleted” value (ENL [9]; 24 h treatment) was about 500 nM. For the same compound, the DC50 (ENL [9]; 24 h treatment, read-out: DC50 (concentration at which a protein is reduced by 50%), ENL) was 37 nM, the “concentration of maximal ENL-degrading activity” value (ENL [9]; FIG. 3D) was about 500 nM and the “concentrations at which ENL level started to recover (hook effect)” value (ENL [9]; FIG. 3D) was 1 to 10 µM. For the same compound, the “levels of AF9, AFF4, cyclin-T1 and DOT1L” value [10] was “not significantly decreased” and the EC50 (Hela cell) was over 50000 nM.
